Values joined by “and” are separate entries in the source; they are usually repeats but may differ in a detail not shown here. Equal values may be shown once. Numbered stars: 1 amine (or outer) side, 2 acyl side, 3 side chain; on linkers, the order of the positions; unused ones are H or OH. Bridge positions count the residues as written; N and C are the ends. Square brackets hold non-standard residues; d marks the D form. Peptide text beside a SMILES is read from it. I, II: the chains in the order shown. Actinocin(9to1) = Cc1c2oc3c(C)ccc(C(=O)[*:1])c3nc-2c(C(=O)[*:2])c(N)c1=O; NMeV = CN[C@H](C(=O)O)C(C)C; Sar = CNCC(=O)O
Tested on: L929 cells
Assay: Percent toxicity of control wells in L929 cells
Assay type: cell-based, mouse
Conditions: Actinomycin D only (no TNFα), sample replicates

## Cc1c2oc3c(C)ccc(C(=O)N[C@@H]4C(=O)N[C@H](C(C)C)C(=O)N5CCC[C@H]5C(=O)N(C)CC(=O)N(C)[C@@H](C(C)C)C(=O)O[C@@H]4C)c3nc-2c(C(=O)N[C@@H]2C(=O)N[C@H](C(C)C)C(=O)N3CCC[C@H]3C(=O)N(C)CC(=O)N(C)[C@@H](C(C)C)C(=O)O[C@@H]2C)c(N)c1=O [Actinomycin D] (I: T[dV]P[Sar][NMeV] / II: T[dV]P[Sar][NMeV]; ester I:1-I:C, II:1-II:C; linker I:N-II:N via Actinocin(9to1))
Assay 1
  % Toxicity: 18.6% and 5.4% and 2.3% and 3.5% and 0% (8×)
Assay 2
  % Toxicity: 2.3% and 0% (4×) and 10.4% and 0.4%

Reference: patent US20170327598A1, “SINGLE DOMAIN ANTIBODIES DIRECTED AGAINST INTRACELLULAR ANTIGENS” (SINGH MOLECULAR MEDICINE, LLC, priority 2014, published 2017)
